Experimental data from ChEMBL document CHEMBL1201862, “PubChem BioAssay data set” (2004).
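Values below derive from 48-hour exposures of cells grown in 96-well plates, with endpoints linearly interpolated between the two concentrations bracketing the appropriate inhibition level. The concentration for 50% growth inhibition is given as GI50.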 Activity calls are given as the source filed them. Cut-off read from the data, not from the text of the source: active = GI50 up to about 1.1 µM and inactive = higher.

Columns and labels:
Assay in all cases: inhibition of tumour cell growth, NCI panel, 48 h
[1] = test system: 786-0
[2] = test system: NCI-H460
[3] = test system: OVCAR-8
[4] = test system: HT-29
[5] = test system: EKVX
[6] = test system: UACC-257
[7] = test system: TK-10
[8] = test system: BT-549
[9] = test system: HOP-92
[10] = test system: SF-268
[11] = test system: A498
[12] = test system: HOP-62
[13] = test system: IGROV-1
[14] = test system: MDA-MB-231
[15] = test system: T47D
[16] = test system: SN12C
[17] = test system: M14
[18] = test system: CCRF-CEM
[19] = test system: HCT-116
[20] = test system: MCF7
[21] = test system: MDA-N
[22] = test system: KM12
[23] = test system: MDA-MB-435
[24] = test system: SNB-19
[25] = test system: ACHN
[26] = test system: NCI/ADR-RES
[27] = test system: SNB-75
[28] = test system: RXF 393
[29] = test system: SK-MEL-28
[30] = test system: SK-MEL-2
[31] = test system: SK-OV-3
[32] = test system: PC-3
[33] = test system: LOX IMVI
[34] = test system: SF-295
[35] = test system: DU-145
[36] = test system: UO-31
[37] = test system: HCT-15
[38] = test system: RPMI-8226
[39] = test system: HL-60
[40] = test system: MOLT-4
[41] = test system: OVCAR-5
[42] = test system: SK-MEL-5
[43] = test system: HCC 2998
[44] = test system: OVCAR-4
[45] = test system: K562
[46] = test system: SF-539
[47] = test system: Hs-578T
[48] = test system: NCI-H23
[49] = test system: NCI-H226
[50] = test system: U-251
[51] = test system: Malme-3M
[52] = test system: CAKI-1
[53] = test system: SR
[54] = test system: COLO 205
[55] = test system: UACC-62
[56] = test system: OVCAR-3
[57] = test system: SW-620
[58] = test system: NCI-H522
[59] = test system: A549

## Cc1c(F)c(N)c2c(=O)cc(-c3ccc(NC(=O)[C@@H](N)CCCCN)c(F)c3)oc2c1F
[1]
  GI50: 9.31 µM (inactive)
[2]
  GI50: 0.101 µM (active)
[3]
  GI50: 11 µM (inactive)
[4]
  GI50: 13.1 µM (inactive)
[5]
  GI50: 6.68 µM (inactive)
[6]
  GI50: 0.242 µM (active)
[7]
  GI50: 0.134 µM (active)
[8]
  GI50: 24.4 µM (inactive)
[9]
  GI50: 18.6 µM (inactive)
[10]
  GI50: 11.9 µM (inactive)
[11]
  GI50: 0.0537 µM (active)
[12]
  GI50: 7.59 µM (inactive)
[13]
  GI50: 0.0418 µM (active)
[14]
  GI50: 13.2 µM (inactive)
[15]
  GI50: 0.159 µM (active)
[16]
  GI50: 14.9 µM (inactive)
[17]
  GI50: 16.4 µM (inactive)
[18]
  GI50: 3.52 µM (inactive)
[19]
  GI50: 2.88 µM (inactive)
[20]
  GI50: 0.033 µM (active)
[21]
  GI50: 7.26 µM (inactive)
[22]
  GI50: 9.33 µM (inactive)
[23]
  GI50: 7.21 µM (inactive)
[24]
  GI50: 18.4 µM (inactive)
[25]
  GI50: 12.9 µM (inactive)
[26]
  GI50: 21.4 µM (inactive)
[27]
  GI50: 4.68 µM (inactive)
[28]
  GI50: 18.2 µM (inactive)
[29]
  GI50: 13.2 µM (inactive)
[30]
  GI50: 21.3 µM (inactive)
[31]
  GI50: 15.1 µM (inactive)
[32]
  GI50: 15.3 µM (inactive)
[33]
  GI50: 8.83 µM (inactive)
[34]
  GI50: 15.6 µM (inactive)
[35]
  GI50: 13.7 µM (inactive)
[36]
  GI50: 7.83 µM (inactive)
[37]
  GI50: 11.2 µM

## COc1cccc(C2C3=C(COC3=O)Oc3cc4c(cc32)OCO4)c1 (centres undefined)
[1]
  GI50: 0.0344 µM (active)
[2]
  GI50: 0.0267 µM (active)
[3]
  GI50: 0.0421 µM (active)
[38]
  GI50: 0.0156 µM (active)
[4]
  GI50: 0.0309 µM (active)
[5]
  GI50: 0.177 µM (active)
[6]
  GI50: 0.0303 µM (active)
[7]
  GI50: 0.0766 µM (active)
[39]
  GI50: < 0.0146 µM (active)
[8]
  GI50: > 100 µM (inactive)
[40]
  GI50: 0.0256 µM (active)
[41]
  GI50: 0.52 µM (active)
[42]
  GI50: 0.0175 µM (active)
[10]
  GI50: 0.0575 µM (active)
[11]
  GI50: 0.0264 µM (active)
[12]
  GI50: 0.033 µM (active)
[13]
  GI50: 0.0738 µM (active)
[14]
  GI50: 0.0718 µM (active)
[16]
  GI50: 0.078 µM (active)
[17]
  GI50: 0.0307 µM (active)
[43]
  GI50: 0.0723 µM (active)
[44]
  GI50: 0.424 µM (active)
[45]
  GI50: < 0.0135 µM (active)
[46]
  GI50: 0.0211 µM (active)
[18]
  GI50: 0.0192 µM (active)
[47]
  GI50: < 0.0176 µM (active)
[48]
  GI50: 0.0653 µM (active)
[19]
  GI50: 0.0264 µM (active)
[49]
  GI50: 0.0611 µM (active)
[20]
  GI50: 0.0246 µM (active)
[50]
  GI50: 0.0445 µM (active)
[21]
  GI50: < 0.01 µM (active)
[51]
  GI50: 0.0248 µM (active)
[52]
  GI50: 0.0229 µM (active)
[53]
  GI50: < 0.0135 µM (active)
[54]
  GI50: 0.0233 µM (active)
[22]
  GI50: < 0.0142 µM (active)
[23]
  GI50: < 0.01 µM (active)
[24]
  GI50: 0.187 µM (active)
[55]
  GI50: 0.0134 µM (active)
[56]
  GI50: 0.0219 µM (active)
[25]
  GI50: 0.0432 µM (active)
[26]
  GI50: 0.0168 µM (active)
[57]
  GI50: 0.0188 µM (active)
[27]
  GI50: 0.0194 µM (active)
[28]
  GI50: 0.0251 µM (active)
[29]
  GI50: 0.0327 µM (active)
[30]
  GI50: < 0.0247 µM (active)
[58]
  GI50: < 0.01 µM (active)
[59]
  GI50: 0.0412 µM (active)
[31]
  GI50: 0.0414 µM (active)
[32]
  GI50: 0.0196 µM (active)
[33]
  GI50: < 0.0155 µM (active)
[34]
  GI50: < 0.0303 µM (active)
[35]
  GI50: 0.0375 µM (active)
[36]
  GI50: 0.0927 µM (active)
[37]
  GI50: 0.0172 µM
